Common to all, as to assay: relative viability (nuclei count vs DMSO), 5 days (fraction); higher = more cells survive
Compound in experiment [1]: C1CSC2=C(C(=O)N1)SC3=C2C=C(C=C3)O [kb NB 142-70] + COc1cccc2cc(-c3nc([C@H]4CC[C@H](C(=O)O)CC4)n4ncnc(N)c34)[nH]c12 [OSI-027] (partner 0.5 µM)
A digest of the protocol: (§1)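 Cells from lung cancer lines were seeded into 1536-well plates and, one day later, dosed by pin tool. Treatments were either a single drug or a fixed dose of an anchor drug with five library-drug doses (not always all listed) in √10 steps. After 5 days, nuclei were stained in a one-step fixation (final 0.05% Triton X-100, 1% formaldehyde, 1 ug/ml Hoechst) and counted on 4× images, and relative viability is the treated-to-vehicle nuclei ratio, as the median of duplicate plates.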

Compound in experiment [2]: C1CSC2=C(C(=O)N1)SC3=C2C=C(C=C3)O [kb NB 142-70] + O=C(c1cc(Cc2n[nH]c(=O)c3ccccc23)ccc1F)N1CCN(C(=O)C2CC2)CC1 [Olaparib] (partner 8 µM)
A digest of the protocol:
as §1

Compound in experiment [3]: NCC(=O)Nc1ccc(-n2nc(C(F)(F)F)cc2-c2ccc3c(ccc4ccccc43)c2)cc1 + Cc1nc(Nc2ncc(C(=O)Nc3c(C)cccc3Cl)s2)cc(N2CCN(CCO)CC2)n1 [Dasatinib] (partner 0.075 µM)
A digest of the protocol:
as §1

Compound in experiment [4]: C1CSC2=C(C(=O)N1)SC3=C2C=C(C=C3)O [kb NB 142-70] + CC(C)C[C@H](NC(=O)[C@H](Cc1ccccc1)NC(=O)c1cnccn1)B(O)O [Bortezomib] (partner 0.002 µM)
A digest of the protocol:
as §1

Compound in experiment [5]: C1CSC2=C(C(=O)N1)SC3=C2C=C(C=C3)O [kb NB 142-70] + CS(=O)(=O)N1CCN(Cc2cc3nc(-c4cccc5[nH]ncc45)nc(N4CCOCC4)c3s2)CC1 [Pictilisib] (partner 1 µM)
A digest of the protocol: as §1

Our source for the relative viability values is the supplement of paper PMC10307832.

For the cell line UMC-11, the relative viability in experiment [1] (first compound 0.1 µM) was 0.463; in experiment [1] (first compound 1 µM), 0.468; in experiment [1] (first compound 3.162 µM), 0.298; in experiment [2] (first compound 0.1 µM), 0.309; in experiment [2] (first compound 1 µM), 0.315; in experiment [2] (first compound 3.162 µM), 0.199. Further, the relative viability came to 0.426 in experiment [3] (first compound 0.02 µM); 0.416 in experiment [3] (first compound 0.06325 µM); 0.466 in experiment [3] (first compound 0.2 µM); 0.432 in experiment [3] (first compound 0.6325 µM); 0.42 in experiment [3] (first compound 2 µM); 0.667 in experiment [4] (first compound 0.1 µM). The relative viability was 0.806 in experiment [4] (first compound 1 µM); 0.703 in experiment [4] (first compound 3.162 µM); 0.83 in experiment [5] (first compound 0.1 µM); 0.719 in experiment [5] (first compound 1 µM); 0.44 in experiment [5] (first compound 3.162 µM).
